Test [1] relates to thermal hyperalgesia in SCI animals. The experiment in a line: Tail flick thermal nociception in contusion SCI rats. The format is in vivo, Long-Evans rats. The conditions noted are these: for % analgesia (maximum possible effect, MPE), tail flick latency: drug alone, s.c. 30 mins prior to testing, morphine 2 mg/kg; for % Analgesia scores, injection of drug alone, compared to morphine alone (52.01%) / % analgesia (MPE), tail flick latency, drug added to morphine: rat, in vivo. Background: Thermal pain tests record how soon the animal reacts.

The test system is the same in test [2]. As to conditions: rodent SCI model; Rodgers et al. 2019, 2020; cited from earlier work.
The next test deals with patients with pain. The conditions noted are these: clinical study using morphine to treat pain; cited from earlier work.
For another test, the target named is DIR receptor (Homo sapiens, UniProt P21728). The conditions noted are these: Millan, Maiofiss et al. 2002; Chen, Collins et al. 2008; cited from earlier work.
The mark [3] stands for this setting: morphine nonresponsive SCI animals (n=18), pramipexole 0.1 mg/kg, SCH 39166 0.1 mg/kg.

“And” between values parts separate entries of the source, which are not always exact repeats. Equal values may be shown once.

Chain of DIR receptor (P21728 whole entry): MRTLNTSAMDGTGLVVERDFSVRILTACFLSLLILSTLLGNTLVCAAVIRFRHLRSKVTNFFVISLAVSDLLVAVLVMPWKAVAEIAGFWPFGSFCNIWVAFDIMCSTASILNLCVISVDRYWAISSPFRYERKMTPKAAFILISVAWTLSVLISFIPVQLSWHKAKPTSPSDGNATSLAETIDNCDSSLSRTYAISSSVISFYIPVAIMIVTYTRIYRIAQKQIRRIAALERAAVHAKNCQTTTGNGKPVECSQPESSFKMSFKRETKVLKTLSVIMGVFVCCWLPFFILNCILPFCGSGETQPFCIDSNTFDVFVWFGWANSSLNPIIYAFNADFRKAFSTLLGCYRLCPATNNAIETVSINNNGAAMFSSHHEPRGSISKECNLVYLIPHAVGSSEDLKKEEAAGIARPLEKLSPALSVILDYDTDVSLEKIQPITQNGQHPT

For `CN1CCc2cc(Cl)c(O)cc2[C@H]2c3ccccc3CC[C@@H]21` [SCH 39166], in test [1] (setting [3]), the “% analgesia (maximum possible effect, MPE), tail flick latency” value was −37.5%±6.99. Further, in test [1], the “% Analgesia scores, injection of drug alone, compared to morphine alone (52.01%)” value is on record as −21.07%±10.46; the “% analgesia (MPE), tail flick latency, drug added to morphine” value was 18.79%±13.547 and 29.56%+11.51.

For `CN1CC[C@]23c4c5ccc(O)c4O[C@H]2[C@@H](O)C=C[C@H]3[C@H]1C5` [morphine], the “Share of SCI animals responsive to morphine (earlier studies)” value in test [2] was “⅓ and one third”. The “Share of SCI animals in which an acute injection of morphine provided analgesia” value in test [1] (morphine 2 mg/kg s.c., n=8 of 26 SCI animals) is “one third”. The “% analgesia (maximum possible effect, MPE), tail flick latency” value in test [1] (setting [3]) is −24.48%±6.241. Moreover, the “% analgesia (maximum possible effect, MPE), tail flick latency” value in test [1] (morphine responsive SCI animals (n=8)) is 52.01%±3.494. Moreover, in the test with patients with pain, the “Patients who continued morphine treatment for pain management for more than 12 months” value is listed as 15% and the “Patients who failed to respond to morphine treatment” value is “more than 50%”. In addition, at DIR receptor, the “Binding to the DIR receptor” value is “neither morphine nor pramipexole bind to the DIR receptor”.

As for `CCCN[C@H]1CCc2nc(N)sc2C1` [pramipexole], in test [1] (setting [3]), the “% analgesia (maximum possible effect, MPE), tail flick latency” value is −7.27%±11.06. In test [1], the “% Analgesia scores, injection of drug alone, compared to morphine alone (52.01%)” value was 12.87%±15.84; the “% analgesia (MPE), tail flick latency, drug added to morphine” value is 96.98%±1.985 and 64.38%±10.37.

Values taken from patent US20250044306A1, “Methods for Determining Opioid Responsiveness in the Treatment of Pain” (priority 2021, published 2025).
